Measured values reported in ChEMBL document CHEMBL1131203, “Second generation "peptoid" CCK-B receptor antagonists: identification and development of N-(adamantyloxycarbonyl)-alpha-methyl-(R)-tryptophan derivative (CI-1015) with an improved pharmacokinetic profile” (J Med Chem, 1998).

What was measured:
[1] = biological target: T1, Gastrin/cholecystokinin type B receptor (Mus musculus, UniProt P56481); assay: Inhibitory concentration against radioligand [125I]Bolton-Hunter labeled CCK-8 to cholecystokinin type B receptor in the mouse cerebral cortex; format: tissue-based
T1 sequence (P56481 whole entry): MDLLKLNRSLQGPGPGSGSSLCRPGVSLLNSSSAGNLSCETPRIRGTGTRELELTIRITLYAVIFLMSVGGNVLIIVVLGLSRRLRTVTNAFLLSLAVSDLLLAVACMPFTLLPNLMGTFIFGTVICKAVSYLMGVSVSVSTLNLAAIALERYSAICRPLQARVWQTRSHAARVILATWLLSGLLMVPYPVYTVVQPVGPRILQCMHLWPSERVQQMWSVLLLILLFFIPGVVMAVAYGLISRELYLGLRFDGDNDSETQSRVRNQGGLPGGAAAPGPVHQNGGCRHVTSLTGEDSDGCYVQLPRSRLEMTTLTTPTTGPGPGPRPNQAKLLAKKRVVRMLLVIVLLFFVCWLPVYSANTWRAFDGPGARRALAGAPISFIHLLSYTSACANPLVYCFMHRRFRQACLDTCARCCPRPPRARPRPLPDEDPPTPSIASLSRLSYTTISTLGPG

[2] = biological target: T2, Cholecystokinin receptor type A (Rattus norvegicus, UniProt P30551); assay: Inhibitory concentration against radioligand [125I]Bolton-Hunter labeled CCK-8 to cholecystokinin type A receptor in the rat pancreas
T2 sequence (P30551 whole entry): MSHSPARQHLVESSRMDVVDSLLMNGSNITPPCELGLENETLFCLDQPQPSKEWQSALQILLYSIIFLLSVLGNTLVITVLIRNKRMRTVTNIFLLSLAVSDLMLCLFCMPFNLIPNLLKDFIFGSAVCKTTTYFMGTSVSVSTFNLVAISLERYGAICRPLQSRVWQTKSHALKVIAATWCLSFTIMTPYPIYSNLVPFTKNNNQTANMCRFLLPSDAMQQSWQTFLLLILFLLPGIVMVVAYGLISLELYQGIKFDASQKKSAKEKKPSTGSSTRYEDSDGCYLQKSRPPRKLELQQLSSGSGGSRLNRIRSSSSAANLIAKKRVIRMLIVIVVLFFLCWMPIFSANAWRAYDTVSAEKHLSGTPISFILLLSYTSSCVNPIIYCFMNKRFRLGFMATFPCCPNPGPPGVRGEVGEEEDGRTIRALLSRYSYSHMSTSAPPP

[3] = Ratio of IC50 towards CCK-A receptor and CCK-B receptor

SMILES | IC50 [1] | IC50 [2] | Ratio [3]
COC(=O)CC(CC(=O)OC)NC(=O)[C@@](C)(Cc1c[nH]c2ccccc12)NC(=O)OC1C2CC3CC(C2)CC1C3 (stereo partly specified) | 0.214 µM | 1.17 µM | 5.5
C[C@](Cc1c[nH]c2ccccc12)(NC(=O)OC1C2CC3CC(C2)CC1C3)C(=O)NC1CC2CCC1C2 (stereo in doubt; 22) [listing 1 of 2 here] |  |  | 7.5
C[C@](Cc1c[nH]c2ccccc12)(NC(=O)OC1C2CC3CC(C2)CC1C3)C(=O)NC1CCCCC1 (stereo partly specified) | 0.05 µM | 2.4 µM | 48
C[C@](Cc1c[nH]c2ccccc12)(NC(=O)OC1C2CC3CC(C2)CC1C3)C(=O)NC1CCCCCC1 (stereo partly specified) | 0.0455 µM | 3.23 µM | 71
COC[C@H]1CCCN1NC(=O)[C@@](C)(Cc1c[nH]c2ccccc12)NC(=O)OC1C2CC3CC(C2)CC1C3 (stereo partly specified) | 0.0025 µM | 3.43 µM | 1370
CC1CCCCC1NC(=O)[C@@](C)(Cc1c[nH]c2ccccc12)NC(=O)OC1C2CC3CC(C2)CC1C3 (stereo partly specified) | 0.039 µM | 2.78 µM | 71.4
C[C@](Cc1c[nH]c2ccccc12)(NC(=O)OC1C2CC3CC(C2)CC1C3)C(=O)NC1CC2CCC1C2 (stereo in doubt; 21) [listing 1 of 2 here] | 0.0785 µM | 1.46 µM | 
C[C@](Cc1c[nH]c2ccccc12)(NC(=O)OC1C2CC3CC(C2)CC1C3)C(=O)NC1(CO)CCCCC1 (stereo partly specified) | 0.121 µM | 1.51 µM | 12.5
C[C@](Cc1c[nH]c2ccccc12)(NC(=O)OC1C2CC3CC(C2)CC1C3)C(=O)NC1CCCCC1C#N (stereo partly specified) | 0.0035 µM | 1.5 µM | 429
C[C@](Cc1c[nH]c2ccccc12)(NC(=O)OC1C2CC3CC(C2)CC1C3)C(=O)NN1CCCC1 (stereo partly specified) | 0.132 µM | 10.8 µM | 82
C[C@](Cc1c[nH]c2ccccc12)(NC(=O)OC1C2CC3CC(C2)CC1C3)C(=O)N[C@H]1CCCC[C@@H]1O (stereo partly specified) |  | 1.94 µM | 
C[C@](Cc1c[nH]c2ccccc12)(NC(=O)OC1C2CC3CC(C2)CC1C3)C(=O)NC1CC2CCC1C2 (stereo in doubt; 21) [listing 2 of 2 here] |  |  | 18.6
C[C@](Cc1c[nH]c2ccccc12)(NC(=O)OC1C2CC3CC(C2)CC1C3)C(=O)N[C@@H]1CCCCC[C@H]1O (stereo partly specified) | 0.00465 µM | 1.24 µM | 267
C[C@](Cc1c[nH]c2ccccc12)(NC(=O)OC1C2CC3CC(C2)CC1C3)C(=O)NN1CC2CCC(CC2)C1 (stereo partly specified) | 0.0065 µM | 1.56 µM | 238
C[C@](Cc1c[nH]c2ccccc12)(NC(=O)OC1C2CC3CC(C2)CC1C3)C(=O)NC1CCCCC1O (stereo partly specified) |  | 1.38 µM | 
C[C@](Cc1c[nH]c2ccccc12)(NC(=O)OC1C2CC3CC(C2)CC1C3)C(=O)NC(Cc1ccccc1)Cc1ccccc1 (stereo partly specified) | 0.0199 µM | 2.24 µM | 112
C[C@](Cc1c[nH]c2ccccc12)(NC(=O)OC1C2CC3CC(C2)CC1C3)C(=O)NC1(CO)CCCC1 (stereo partly specified) | 0.268 µM | 1.42 µM | 5.3
C[C@](Cc1c[nH]c2ccccc12)(NC(=O)OC1C2CC3CC(C2)CC1C3)C(=O)NN1CCCCCC1 (stereo partly specified) | 0.0122 µM | 3.04 µM | 248
COC[C@@H]1CCCN1NC(=O)[C@@](C)(Cc1c[nH]c2ccccc12)NC(=O)OC1C2CC3CC(C2)CC1C3 (stereo partly specified) | 0.0654 µM | 6.9 µM | 105
C[C@](Cc1c[nH]c2ccccc12)(NC(=O)OC1C2CC3CC(C2)CC1C3)C(=O)CNC1CCCCC1 (stereo partly specified) | 0.314 µM | 3.33 µM | 10.6
C[C@](Cc1c[nH]c2ccccc12)(NC(=O)OC1C2CC3CC(C2)CC1C3)C(=O)NC1(C(=O)O)CCCCC1 (stereo partly specified) | 0.083 µM | 1.53 µM | 18.4
C[C@](Cc1c[nH]c2ccccc12)(NC(=O)OC1C2CC3CC(C2)CC1C3)C(=O)NC1CC2CCC1C2 (stereo in doubt; 22) [listing 2 of 2 here] | 0.166 µM | 1.25 µM | 
COC(=O)C1(NC(=O)[C@@](C)(Cc2c[nH]c3ccccc23)NC(=O)OC2C3CC4CC(C3)CC2C4)CCCCC1 (stereo partly specified) | 0.191 µM | 1.99 µM | 10.4
C[C@](Cc1c[nH]c2ccccc12)(NC(=O)OC1C2CC3CC(C2)CC1C3)C(=O)N[C@H]1CCCCC[C@@H]1O (stereo partly specified) | 0.0255 µM | 1.66 µM | 65
C[C@](Cc1c[nH]c2ccccc12)(NC(=O)OC1C2CC3CC(C2)CC1C3)C(=O)NN1CCCCC1 (stereo partly specified) | 0.0197 µM | 3.83 µM | 194
C[C@](Cc1c[nH]c2ccccc12)(NC(=O)OC1C2CC3CC(C2)CC1C3)C(=O)NC(CC(=O)O)CC(=O)O (stereo partly specified) | 1.77 µM | 15.7 µM | 8.9
C[C@](Cc1c[nH]c2ccccc12)(NC(=O)OC1C2CC3CC(C2)CC1C3)C(=O)NC1CCCCC1C(=O)O (stereo partly specified) | 0.00099 µM | 0.701 µM | 708
